Tested on: human myeloma cell line MM.1S
Assay: SILAC acetylated-lysine peptide profiling, HDAC inhibitor vs DMSO (light/heavy ratio)
Assay type: cell-based
Excerpt: An embodiment of the invention comprises utilizing the SILAC method in order to quantitate changes in protein expression between two or more populations of cells. The SILAC method is a technique based on mass spectrometry that detects differences in protein abundance among samples using non-radioactive isotopic labeling. The SILAC method is known in the art, and described in detail in Ong et al., “Stable Isotope Labeling by Amino Acids in Cell Culture, SILAC, as a Simple and Accurate Approach to Expression Proteomics”, Molecular & Cellular Proteomics, vol. 1, pp. 376-386 (2002), which is incorporated herein by reference in its entirety.
Briefly, the SILAC method involves growing two populations of cells in cell culture. The first population of cells is grown in growth media containing normal amino acids (“normal media”). The second population of cells is grown in media lacking a standard essential amino acid (such as lysine), but is then supplemented with a non-radioactive, isotopically labeled form of that essential amino acid (such as lysine labeled with ^13C atoms, rather than normal ^12C atoms), which is called “heavy media”. When the two populations of cells are each growing in the medium, they incorporate the amino acids into all of their proteins. The growth of cells maintained in the heavy media is no different from that in normal media. All peptides containing the heavy amino acids are heavier than their normal counterparts. The cells from each of the two populations of cells are lysed. The lysates from each of the two cell populations are then combined. The combined cell lysates are then analyzed by mass spectrometry. Pairs of chemically identical peptides of different stable isotope composition can be differentiated in a mass spectrometer due to their difference in mass. The ratio of peak intensities in the mass spectrum for such peptide pairs reflects the abundance ratio for the two proteins.
This example describes SILAC studies that were performed to compare the effects of three different HDAC inhibitors (Compound A, Compound B, and tubastatin A) to a control on a human multiple myeloma cell line. The HDAC inhibitors were also compared amongst themselves to determine differences in their effects.
A human myeloma cell line MM.1S was grown using either ^12C (light) or ^13C (heavy) lysine containing culture medium. The “heavy” cells were treated with DMSO as the control, and the “light” cells were treated with a single HDAC inhibitor at 37° C. for 6 hours. The heavy and light cells were lysed, and the lysates were mixed in 1:1 ratio and digested with the protease trypsin. The acetylated lysine containing peptides (due to the action of the HDAC inhibitor) in the digested peptide pool were captured by a non-specific anti-acetylated lysine antibody cocktail (the antibodies identify both light and heavy acetylated peptides), and subjected to mass spectrometry analysis in order to identify thousands of individual peptides.
Thousands of peptides were identified in pairs (^12C and ^13C) due to their known mass differences. The amino acid sequence and quantitative ratio (Light/Heavy) of a given peptide in two differentially treated cell lysates were then determined and annotated with their possible protein (gene) sources.
As stated above, three HDAC inhibitors (Compound A, Compound B, and Tubastatin A) were used. Thus, the SILAC method was performed three times, with a different HDAC inhibitor compared to a control each time. Accordingly, there are three pairs of quantitative data in the table below, i.e., Compound A:DMSO, Compound B:DMSO, and Tubastatin A:DMSO. A cut-off of 1.30 fold of change (increase or decrease) was then used to determine “changed” or “+” in the table, and any peptides with a fold of change less than 1.3 fold were determined to be “unchanged” or “0” in the table. Those peptides that were not identified were marked as “NA” in the table. […]

Structure (SMILES): O=C(CCCCCCNC(=O)c1cnc(N(c2ccccc2)c2ccccc2)nc1)NO [Compound A, 2-(diphenylamino)-N-(7-(hydroxyamino)-7-oxoheptyl)pyrimidine-5-carboxamide]
- L/H ratio of acetylated peptide […](ac)K (SEQ ID NO: 105) (SNORD21, RPL5 [220], log 2 scale, drug vs DMSO): 0.00
- L/H ratio of acetylated peptide […](ac)R (SEQ ID NO: 106) (SNORD43, RPL3 [115], log 2 scale, drug vs DMSO): 0.00
- L/H ratio of acetylated peptide […](ac)YGAIR (SEQ ID NO: 107) (SRSF1 [38], log 2 scale, drug vs DMSO): 0.00
- L/H ratio of acetylated peptide (ac)AEPSAPESK(ac)HK (SEQ ID NO: 108) (STT3B [10], log 2 scale, drug vs DMSO): 0.00
- L/H ratio of acetylated peptide (SYAEELAK(ac)HGMK (SEQ ID NO: 481), Estradiol 17-beta-dehydrogenase 12 [72], HSD17B12): 0.39 log 2
- light to heavy ratio (L/H ratio), log 2 scale, acetylated peptide […](ac)R (SEQ ID NO: 781) (Selenoprotein H [20], gene C11orf31, drug:DMSO): 1.00
- light to heavy ratio (L/H ratio) of acetylated peptide LQDFK(ac)SFLLK (SEQ ID NO: 582) (Serine hydroxymethyltransferase mitochondrial [469], gene SHMT2, inhibitor:DMSO): 0.43 log 2
- light to heavy ratio (L/H ratio) of acetylated peptide SFLLK(ac)DSETSQR (SEQ ID NO: 567) (Serine hydroxymethyltransferase mitochondrial [474], gene SHMT2, inhibitor:DMSO): 0.41 log 2
- light to heavy ratio (L/H ratio) of acetylated peptide VFEK(ac)YGR (SEQ ID NO: 568) (Serine/arginine-rich splicing factor 2 [36], gene SRSF2, inhibitor:DMSO): 0.41 log 2
- light to heavy ratio (L/H ratio) of acetylated peptide SGLLDK(ac)WK (SEQ ID NO: 602) (Signal peptidase complex subunit 2 [38], gene LOC653566, SPCS2, inhibitor:DMSO): 0.46 log 2
- light to heavy ratio (L/H ratio) of acetylated peptide (ac)[…](ac)DK (SEQ ID NO: 283) (Splicing factor U2AF 35 kDa subunit [13], U2AF1, drug:DMSO): 0.60 log 2
- light to heavy ratio (L/H ratio) of acetylated peptide YDDPEVQK(ac)DIK (SEQ ID NO: 578) (Stress-70 protein mitochondrial [135], gene HSPA9, inhibitor:DMSO): 0.43 log 2
- light to heavy ratio (L/H ratio) of acetylated peptide […](ac)SLAEHR (SEQ ID NO: 534) (Stress-induced-phosphoprotein 1 [325], gene STIP1, inhibitor:DMSO): −0.40 log 2
- light to heavy ratio (L/H ratio) of acetylated peptide, log 2 scale (TLQYK(ac)[…] (SEQ ID NO: 252), 40S ribosomal protein S16 [50], RPS16): −0.39
- L/H ratio of acetylated peptide […](ac)YVPR (SEQ ID NO: 109) (TUBB2C [58], log 2 scale, drug vs DMSO): 0.00
- L/H ratio of acetylated peptide ILAEGGGAK(ac)FK (SEQ ID NO: 110) (TUFM [91], log 2 scale, drug vs DMSO): 0.00
- L/H ratio of acetylated peptide QIESK(ac)[…] (SEQ ID NO: 111) (TXN [8], log 2 scale, drug vs DMSO): 0.00
- L/H ratio of acetylated peptide VYVAK(ac)[…] (SEQ ID NO: 113) (TXNDC5, MUTED, MUTED-TXNDC5 [118], log 2 scale, drug vs DMSO): 0.00
- L/H ratio of acetylated peptide […](ac)YQGPR (SEQ ID NO: 112) (TXNDC5, MUTED, MUTED-TXNDC5 [150], log 2 scale, drug vs DMSO): 0.00
- light to heavy ratio (L/H ratio), log 2 scale, acetylated peptide LLGITK(ac)ECVMR (SEQ ID NO: 815) (Talin-1 [334], gene TLN1, drug:DMSO): 1.00
- light to heavy ratio (L/H ratio) of acetylated peptide NICSK(ac)YSVR (SEQ ID NO: 256) (Thioredoxin domain-containing protein 5 [390], TXNDC5, MUTED, MUTED-TXNDC5, drug:DMSO): 0.39 log 2
- light to heavy ratio (L/H ratio), log 2 scale, acetylated peptide […](ac)YGK (SEQ ID NO: 817) (Transitional endoplasmic reticulum ATPase [109], gene VCP, drug:DMSO): 1.00
- light to heavy ratio (L/H ratio) of acetylated peptide AVDCLLDSK(ac)WAK (SEQ ID NO: 518) (Translocation protein SEC62 [60], gene SEC62, inhibitor:DMSO): −0.51 log 2
- light to heavy ratio (L/H ratio) of acetylated peptide NVK(ac)FVLK (SEQ ID NO: 609) (Translocon-associated protein subunit gamma [81], gene SSR3, inhibitor:DMSO): 0.47 log 2
- light to heavy ratio (L/H ratio) of acetylated peptide SEIINSK(ac)NFDR (SEQ ID NO: 525) (Transmembrane protein 43 [159], gene TMEM43, inhibitor:DMSO): −0.45 log 2
- light to heavy ratio (L/H ratio) of acetylated peptide VK(ac)[…] (SEQ ID NO: 562) (Tricarboxylate transport protein mitochondrial [149], gene SLC25A1, inhibitor:DMSO): 0.40 log 2
- light to heavy ratio (L/H ratio), log 2 scale, acetylated peptide ESK(ac)[…] (SEQ ID NO: 787) (Trifunctional enzyme subunit alpha mitochondrial [337], gene HADHA, drug:DMSO): 1.00
- light to heavy ratio (L/H ratio), log 2 scale, acetylated peptide FGAPQK(ac)DVK (SEQ ID NO: 788) (Trifunctional enzyme subunit alpha mitochondrial [359], gene HADHA, drug:DMSO): 1.00
- light to heavy ratio (L/H ratio), log 2 scale, acetylated peptide ILQEGVDPK(ac)K (SEQ ID NO: 789) (Trifunctional enzyme subunit alpha mitochondrial [569], gene HADHA, drug:DMSO): 1.00
- light to heavy ratio (L/H ratio) of acetylated peptide VPGK(ac)DTVTK (SEQ ID NO: 308) (Trifunctional enzyme subunit beta mitochondrial [272], HADHB, drug:DMSO): 1.00 log 2
- light to heavy ratio (L/H ratio), log 2 scale, acetylated peptide GK(ac)GK(ac)AGR (SEQ ID NO: 816) (Tubulin polymerization-promoting protein [187:189], gene TPPP, drug:DMSO): 1.00
- L/H ratio of acetylated peptide VVVTK(ac)YCDPDSYHR (SEQ ID NO: 114) (U2AF2 [462], log 2 scale, drug vs DMSO): 0.00
- light to heavy ratio (L/H ratio), log 2 scale, acetylated peptide QNIILK(ac)NDK (SEQ ID NO: 784) (Uncharacterized protein CXorf59 [13], gene CXorf59, drug:DMSO): 1.00
- L/H ratio of acetylated peptide (VAILK(ac)ANLR (SEQ ID NO: 488), Transitional endoplasmic reticulum ATPase [658], VCP): 0.80 log 2
- L/H ratio of acetylated peptide FGIAAK(ac)[…] (SEQ ID NO: 115) (VDAC1 [224], log 2 scale, drug vs DMSO): 0.00
- L/H ratio of acetylated peptide YK(ac)[…] (SEQ ID NO: 116) (VDAC2 [63], log 2 scale, drug vs DMSO): 0.00

— US20140357512A1, “HISTONE DEACETYLASE (HDAC) BIOMARKERS IN MULTIPLE MYELOMA” (priority 2013, published 2014)
